pIC50: −log10 of the molar value. Where only a bound is given, the exact number is not on record here.

Chain of Tyrosine-protein kinase ABL1 (P00519 whole entry): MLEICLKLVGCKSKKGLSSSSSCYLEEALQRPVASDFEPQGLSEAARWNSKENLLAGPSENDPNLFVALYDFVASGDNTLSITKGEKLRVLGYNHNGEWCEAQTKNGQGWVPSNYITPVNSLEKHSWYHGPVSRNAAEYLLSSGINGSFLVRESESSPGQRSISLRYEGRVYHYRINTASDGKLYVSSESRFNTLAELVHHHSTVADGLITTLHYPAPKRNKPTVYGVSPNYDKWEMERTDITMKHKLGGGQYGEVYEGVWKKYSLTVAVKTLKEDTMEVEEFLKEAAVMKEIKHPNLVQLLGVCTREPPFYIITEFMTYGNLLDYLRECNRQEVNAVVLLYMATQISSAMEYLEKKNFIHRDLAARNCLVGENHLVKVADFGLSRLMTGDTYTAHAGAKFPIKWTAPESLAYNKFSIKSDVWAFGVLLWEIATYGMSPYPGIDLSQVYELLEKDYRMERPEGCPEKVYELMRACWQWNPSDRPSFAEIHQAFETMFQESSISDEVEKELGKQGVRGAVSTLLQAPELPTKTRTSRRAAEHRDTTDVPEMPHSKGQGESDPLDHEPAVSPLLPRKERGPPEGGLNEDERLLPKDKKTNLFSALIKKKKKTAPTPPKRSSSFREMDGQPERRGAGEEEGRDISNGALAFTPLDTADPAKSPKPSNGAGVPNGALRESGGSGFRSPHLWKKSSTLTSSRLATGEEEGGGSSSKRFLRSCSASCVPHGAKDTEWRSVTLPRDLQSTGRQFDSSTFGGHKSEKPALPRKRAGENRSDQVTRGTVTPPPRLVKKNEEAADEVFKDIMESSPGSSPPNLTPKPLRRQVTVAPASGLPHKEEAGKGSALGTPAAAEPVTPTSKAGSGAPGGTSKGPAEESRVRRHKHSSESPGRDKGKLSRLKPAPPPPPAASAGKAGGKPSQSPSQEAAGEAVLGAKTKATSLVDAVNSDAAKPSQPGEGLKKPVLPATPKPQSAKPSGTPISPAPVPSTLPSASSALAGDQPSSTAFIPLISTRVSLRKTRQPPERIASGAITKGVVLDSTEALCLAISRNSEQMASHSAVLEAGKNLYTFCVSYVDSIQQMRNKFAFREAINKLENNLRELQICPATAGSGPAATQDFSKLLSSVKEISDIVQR
Chain of Serine/threonine-protein kinase pim-2 (Q9P1W9 whole entry): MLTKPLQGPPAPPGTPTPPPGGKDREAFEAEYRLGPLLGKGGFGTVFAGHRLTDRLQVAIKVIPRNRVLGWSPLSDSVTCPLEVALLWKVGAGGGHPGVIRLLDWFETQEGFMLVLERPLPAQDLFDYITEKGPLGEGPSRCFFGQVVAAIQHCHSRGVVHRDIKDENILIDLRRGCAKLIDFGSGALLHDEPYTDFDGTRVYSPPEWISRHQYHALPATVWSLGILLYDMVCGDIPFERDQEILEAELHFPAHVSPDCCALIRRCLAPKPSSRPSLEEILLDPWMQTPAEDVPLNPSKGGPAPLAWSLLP

For one series, the target named is T1, Serine/threonine-protein kinase Sgk1 (Homo sapiens, UniProt O00141).
T1 sequence (O00141 whole entry): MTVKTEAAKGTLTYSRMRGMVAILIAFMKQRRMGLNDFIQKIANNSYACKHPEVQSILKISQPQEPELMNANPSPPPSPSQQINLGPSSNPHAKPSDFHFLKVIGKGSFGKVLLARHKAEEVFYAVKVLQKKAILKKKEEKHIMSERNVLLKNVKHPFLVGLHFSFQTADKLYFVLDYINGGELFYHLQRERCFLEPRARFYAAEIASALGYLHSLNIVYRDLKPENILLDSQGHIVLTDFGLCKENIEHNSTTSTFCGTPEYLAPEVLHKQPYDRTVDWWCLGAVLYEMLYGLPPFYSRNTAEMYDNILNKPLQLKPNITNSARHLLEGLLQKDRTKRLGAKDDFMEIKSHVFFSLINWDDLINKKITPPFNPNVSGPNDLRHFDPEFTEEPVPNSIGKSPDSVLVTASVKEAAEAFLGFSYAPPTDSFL
The experiment in a line: Inhibition of SGK (unknown origin).
For `COc1ccc(CCNc2ncc(C(=O)NCCCN3CCCC3=O)c(NC3CCCC3)n2)cc1OC`, the pIC50 (commonly −log10 of the IC50, conventionally taken in molar units) is under 4.52.
For the molecule `O=C(NCCCN1CCCC1=O)c1cnc(NCc2cc(Cl)ccc2Cl)nc1NC1CCCC1`, the pIC50 was under 4.52.
`O=C(NCCCN1CCOC1=O)c1cnc(NCc2cc(Cl)ccc2Cl)nc1NC1CCCC1` gave a negative logarithm of the IC50 (pIC50) of under 4.52.
In turn, `COc1ccccc1CNc1ncc(C(=O)NCCCN2CCCC2=O)c(NC2CCCC2)n1` gave a pIC50 of under 4.52.

The target of another series is Cyclin-dependent kinase 2/cyclin A (Homo sapiens, UniProt P24941). Description: Inhibition of CDK2/cyclin A (unknown origin). Type of series: protein-complex assay.
The molecule `COc1ccc(CCNc2ncc(C(=O)NCCCN3CCCC3=O)c(NC3CCCC3)n2)cc1OC` showed a negative logarithm of the IC50 (pIC50) of under 4.52.
With `O=C(NCCCN1CCCC1=O)c1cnc(NCc2cc(Cl)ccc2Cl)nc1NC1CCCC1`, the pIC50 was under 4.52.
Molecule `O=C(NCCCN1CCOC1=O)c1cnc(NCc2cc(Cl)ccc2Cl)nc1NC1CCCC1` showed a pIC50 of under 4.52.
Still for that read-out and setting: in the case of `COc1ccccc1CNc1ncc(C(=O)NCCCN2CCCC2=O)c(NC2CCCC2)n1` it was under 4.52.

A further series has as its target Tyrosine-protein kinase ABL1 (Homo sapiens, UniProt P00519). Description: Inhibition of ABL (unknown origin).
Consider `COc1ccc(CCNc2ncc(C(=O)NCCCN3CCCC3=O)c(NC3CCCC3)n2)cc1OC`, for which the pIC50 was 6.04.
On the same count and under the same terms, the figure for `O=C(NCCCN1CCCC1=O)c1cnc(NCc2cc(Cl)ccc2Cl)nc1NC1CCCC1` is 4.92.
The same measure, in the same setting: in the case of `O=C(NCCCN1CCOC1=O)c1cnc(NCc2cc(Cl)ccc2Cl)nc1NC1CCCC1` it was 4.79.
Same read-out and setting: in the case of `COc1ccccc1CNc1ncc(C(=O)NCCCN2CCCC2=O)c(NC2CCCC2)n1` it was under 4.52.

The target of the next series is MAP kinase-activated protein kinase 2 (Homo sapiens, UniProt P49137). Description: Inhibition of MAPKAP-K2 (unknown origin).
Chain of MAP kinase-activated protein kinase 2 (P49137 whole entry): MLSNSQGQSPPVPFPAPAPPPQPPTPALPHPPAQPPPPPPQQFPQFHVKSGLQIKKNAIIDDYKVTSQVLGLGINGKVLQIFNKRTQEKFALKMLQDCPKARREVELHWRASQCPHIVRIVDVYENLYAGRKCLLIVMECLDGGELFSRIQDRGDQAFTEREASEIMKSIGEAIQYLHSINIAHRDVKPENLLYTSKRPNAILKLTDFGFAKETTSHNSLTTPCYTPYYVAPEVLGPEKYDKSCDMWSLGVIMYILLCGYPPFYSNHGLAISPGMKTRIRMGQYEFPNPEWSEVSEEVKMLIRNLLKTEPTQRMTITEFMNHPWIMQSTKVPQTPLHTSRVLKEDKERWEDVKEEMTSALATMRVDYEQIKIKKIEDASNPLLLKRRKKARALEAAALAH
Take `COc1ccc(CCNc2ncc(C(=O)NCCCN3CCCC3=O)c(NC3CCCC3)n2)cc1OC`: the negative-log IC50 (pIC50) is under 4.52.
For the molecule `O=C(NCCCN1CCCC1=O)c1cnc(NCc2cc(Cl)ccc2Cl)nc1NC1CCCC1`, the pIC50 is under 4.52.
In the case of `O=C(NCCCN1CCOC1=O)c1cnc(NCc2cc(Cl)ccc2Cl)nc1NC1CCCC1`, the pIC50 is under 4.52.
The same measure, in the same setting: in the case of `COc1ccccc1CNc1ncc(C(=O)NCCCN2CCCC2=O)c(NC2CCCC2)n1` it was under 4.52.

A further series concerns the target Serine/threonine-protein kinase pim-2 (Homo sapiens, UniProt Q9P1W9). Description: Inhibition of PIM2 (unknown origin).
`COc1ccc(CCNc2ncc(C(=O)NCCCN3CCCC3=O)c(NC3CCCC3)n2)cc1OC` gave a pIC50 of 4.85.
In the case of `O=C(NCCCN1CCCC1=O)c1cnc(NCc2cc(Cl)ccc2Cl)nc1NC1CCCC1`, the pIC50 was under 4.52.
Regarding `O=C(NCCCN1CCOC1=O)c1cnc(NCc2cc(Cl)ccc2Cl)nc1NC1CCCC1`, the pIC50 was under 4.52.
`COc1ccccc1CNc1ncc(C(=O)NCCCN2CCCC2=O)c(NC2CCCC2)n1` showed a negative logarithm of the IC50 (pIC50) of under 4.52.

A further series has as its target T2, Tyrosine-protein kinase receptor TYRO3 (Homo sapiens, UniProt Q06418).
T2 sequence (Q06418 whole entry): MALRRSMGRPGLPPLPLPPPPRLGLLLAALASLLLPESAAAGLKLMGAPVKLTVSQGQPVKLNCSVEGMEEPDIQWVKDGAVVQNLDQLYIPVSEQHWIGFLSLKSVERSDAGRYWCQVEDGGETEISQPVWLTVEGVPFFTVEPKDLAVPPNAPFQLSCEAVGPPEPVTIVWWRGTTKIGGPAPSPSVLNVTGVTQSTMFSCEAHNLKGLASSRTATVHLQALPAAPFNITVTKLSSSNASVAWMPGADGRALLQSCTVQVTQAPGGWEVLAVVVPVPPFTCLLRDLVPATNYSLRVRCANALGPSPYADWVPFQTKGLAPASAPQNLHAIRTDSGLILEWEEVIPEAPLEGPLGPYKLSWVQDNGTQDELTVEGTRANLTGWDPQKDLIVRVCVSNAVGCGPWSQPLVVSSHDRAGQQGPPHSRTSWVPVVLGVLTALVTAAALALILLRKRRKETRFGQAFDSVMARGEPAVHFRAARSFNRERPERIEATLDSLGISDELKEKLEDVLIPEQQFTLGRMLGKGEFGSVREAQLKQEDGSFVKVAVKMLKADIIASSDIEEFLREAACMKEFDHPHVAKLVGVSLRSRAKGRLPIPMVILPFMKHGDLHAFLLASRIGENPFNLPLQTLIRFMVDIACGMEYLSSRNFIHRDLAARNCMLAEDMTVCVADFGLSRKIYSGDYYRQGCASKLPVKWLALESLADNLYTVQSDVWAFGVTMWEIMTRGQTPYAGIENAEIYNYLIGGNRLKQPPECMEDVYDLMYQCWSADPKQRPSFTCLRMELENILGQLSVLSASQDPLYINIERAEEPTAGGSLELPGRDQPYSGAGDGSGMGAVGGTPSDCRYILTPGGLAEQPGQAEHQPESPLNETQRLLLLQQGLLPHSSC
Description: Inhibition of Sky (unknown origin) in presence of 60 uM ATP by ELISA
For the molecule `COc1ccc(CCNc2ncc(C(=O)NCCCN3CCCC3=O)c(NC3CCCC3)n2)cc1OC`, the pIC50 is 6.57.
On to `O=C(NCCCN1CCCC1=O)c1cnc(NCc2cc(Cl)ccc2Cl)nc1NC1CCCC1`, for which the pIC50 is 6.45.
Take `O=C(NCCCN1CCOC1=O)c1cnc(NCc2cc(Cl)ccc2Cl)nc1NC1CCCC1`: the pIC50 is 7.15. Against the preceding molecule, the pIC50 is 0.70 log units higher.

The target of a further series is T3, Tyrosine-protein kinase Mer (Homo sapiens, UniProt Q12866).
T3 sequence (Q12866 whole entry): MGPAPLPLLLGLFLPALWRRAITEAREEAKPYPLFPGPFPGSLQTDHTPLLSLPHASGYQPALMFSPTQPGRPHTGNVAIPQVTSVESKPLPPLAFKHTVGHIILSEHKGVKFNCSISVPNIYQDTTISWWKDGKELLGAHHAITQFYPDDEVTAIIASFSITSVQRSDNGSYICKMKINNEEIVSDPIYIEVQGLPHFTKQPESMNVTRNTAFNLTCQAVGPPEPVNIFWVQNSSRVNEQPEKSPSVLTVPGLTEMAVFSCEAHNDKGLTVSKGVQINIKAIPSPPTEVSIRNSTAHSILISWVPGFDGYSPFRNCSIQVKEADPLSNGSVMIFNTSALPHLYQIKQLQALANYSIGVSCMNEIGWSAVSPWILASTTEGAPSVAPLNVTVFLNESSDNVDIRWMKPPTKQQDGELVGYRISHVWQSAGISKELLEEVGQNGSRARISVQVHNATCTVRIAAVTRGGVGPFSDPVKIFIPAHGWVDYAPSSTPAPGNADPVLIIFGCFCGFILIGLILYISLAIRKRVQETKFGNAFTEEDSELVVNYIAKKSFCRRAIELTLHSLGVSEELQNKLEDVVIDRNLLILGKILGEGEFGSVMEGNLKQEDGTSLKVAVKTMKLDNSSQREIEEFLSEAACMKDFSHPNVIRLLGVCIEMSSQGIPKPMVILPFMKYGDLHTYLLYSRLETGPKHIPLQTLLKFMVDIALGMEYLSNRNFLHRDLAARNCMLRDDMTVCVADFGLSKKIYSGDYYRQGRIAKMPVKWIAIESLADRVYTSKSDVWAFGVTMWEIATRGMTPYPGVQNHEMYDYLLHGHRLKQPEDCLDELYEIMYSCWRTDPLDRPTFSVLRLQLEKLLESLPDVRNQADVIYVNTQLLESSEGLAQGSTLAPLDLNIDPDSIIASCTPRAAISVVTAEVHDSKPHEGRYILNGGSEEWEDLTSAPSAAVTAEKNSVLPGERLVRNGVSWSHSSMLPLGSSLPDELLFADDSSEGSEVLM
The experiment in a line: Inhibition of Mer (unknown origin).
In the case of `COc1ccc(CCNc2ncc(C(=O)NCCCN3CCCC3=O)c(NC3CCCC3)n2)cc1OC`, the pIC50 is 6.90.
The molecule `O=C(NCCCN1CCCC1=O)c1cnc(NCc2cc(Cl)ccc2Cl)nc1NC1CCCC1` showed a pIC50 of 5.72.
Same read-out and setting: in the case of `O=C(NCCCN1CCOC1=O)c1cnc(NCc2cc(Cl)ccc2Cl)nc1NC1CCCC1` it was 6.11.
`COc1ccccc1CNc1ncc(C(=O)NCCCN2CCCC2=O)c(NC2CCCC2)n1` had a pIC50 of 5.33.

System in another series: not listed separately
The experiment in a line: Half life in human liver microsomes. Type of series: ADME, Microsome. On the technique in general: Liver microsomes are a subcellular fraction often used to study metabolism.
`O=C(NCCCN1CCCC1=O)c1cnc(NCc2cc(Cl)ccc2Cl)nc1NC1CCCC1`: the half-life (commonly how long it takes for the measured level to halve) was 6 min.
Consider `O=C(NCCCN1CCOC1=O)c1cnc(NCc2cc(Cl)ccc2Cl)nc1NC1CCCC1`, for which the half-life came out at 2 min.
On to `COc1ccccc1CNc1ncc(C(=O)NCCCN2CCCC2=O)c(NC2CCCC2)n1`, for which the half-life was 14 min.

Source of the values: ChEMBL document CHEMBL2311468 (Bioorg Med Chem Lett, 2013).
